Results on 27 molecules are retold here after patent US20220380374A1, “1,4-DIHYDROBENZO[D]PYRAZOLO[3,4-F][1,3]DIAZEPINE DERIVATIVES AND RELATED COMPOUNDS AS LRRK2, NUAK1 AND/OR TYK2 KINASE MODULATORS FOR THE TREATMENT OF E.G. AUTOIMMUNE DISEASE” (Origenis GMBH, priority 2019, published 2022).

Experiment [1] has as its target T1, wt human TYK2, catalytic site (Homo sapiens, UniProt P29597).
T1 construct: 2 nM wt human TYK2, catalytic site (SignalChem/CAN); purchased SignalChem/CAN
T1 sequence (P29597 897-1176 limits assumed): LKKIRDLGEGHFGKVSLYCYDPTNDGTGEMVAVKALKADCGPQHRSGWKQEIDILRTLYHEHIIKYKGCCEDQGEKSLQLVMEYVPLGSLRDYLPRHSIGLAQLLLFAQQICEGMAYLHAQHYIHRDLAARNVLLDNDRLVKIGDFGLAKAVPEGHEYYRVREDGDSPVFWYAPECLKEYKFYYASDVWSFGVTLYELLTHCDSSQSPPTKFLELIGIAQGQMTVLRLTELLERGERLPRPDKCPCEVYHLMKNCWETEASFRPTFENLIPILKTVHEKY
The experiment is described as follows: HTRF KinEASE assay, TYK2. The settings on record: 1 μM ATP; read-out: IC50, inhibitory activity toward TYK2. The format is biochemical. As for the experimental part: Basic protocol for HTRF KinEASE assay (Cisbio/FRA) inhibitor studies involved two steps: Enzymatic step: Addition of 4 μl of test compound in corresponding DMSO dilutions, 4 μl of kinase/substrate mixture, 2 μl of ATP into 384 well small volume plates. Incubation for at least 30 minutes at room temperature.
Detection step: Addition of 5 μl antibody and 5 μl streptavidin-XL665, read plate after 60 minutes. Data analysis of emission ratios according to KinEASE assay protocol.
Kinase and assay components were adjusted to final concentrations according to the kit protocol. For TYK2: 2 nM wt human TYK2, catalytic site (SignalChem/CAN), 1 μM HTRF KinEASE-TK Substrate-biotin, 1 μM ATP in 1× Kinase Buffer

For experiment [2], the target named is T2, wt human NUAK1, full length (Homo sapiens, UniProt O60285).
T2 construct: 8 nM wt human NUAK1, full length (ThermoFisher/USA); purchased ThermoFisher/USA
T2 sequence (O60285 1-661): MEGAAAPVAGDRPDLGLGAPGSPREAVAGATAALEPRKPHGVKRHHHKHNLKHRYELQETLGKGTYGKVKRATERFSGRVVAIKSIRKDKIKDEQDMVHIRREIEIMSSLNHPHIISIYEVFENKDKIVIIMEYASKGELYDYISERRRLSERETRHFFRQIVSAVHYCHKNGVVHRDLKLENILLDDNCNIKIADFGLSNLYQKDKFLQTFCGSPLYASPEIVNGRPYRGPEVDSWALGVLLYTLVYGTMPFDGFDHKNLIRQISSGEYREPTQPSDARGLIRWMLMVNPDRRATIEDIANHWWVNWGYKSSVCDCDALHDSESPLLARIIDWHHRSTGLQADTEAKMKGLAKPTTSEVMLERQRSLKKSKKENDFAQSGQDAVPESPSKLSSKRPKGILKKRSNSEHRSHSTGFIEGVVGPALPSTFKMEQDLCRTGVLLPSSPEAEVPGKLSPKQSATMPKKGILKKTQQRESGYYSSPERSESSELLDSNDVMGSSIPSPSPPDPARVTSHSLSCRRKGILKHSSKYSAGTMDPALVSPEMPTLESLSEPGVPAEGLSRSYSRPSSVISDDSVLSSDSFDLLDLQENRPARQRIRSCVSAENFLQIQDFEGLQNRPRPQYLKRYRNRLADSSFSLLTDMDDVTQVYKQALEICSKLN
The experiment is described as follows: TR-FRET LanthaScreen Eu Kinase Binding Assay, NUAK1. The settings on record: 5 nM Kinase Tracer 236; read-out: IC50, inhibitory activity toward NUAK1. As to the method:
The basic protocol for TR-FRET LanthaScreen Eu Kinase Binding Assay inhibitor studies were performed as follows. LanthaScreen Kinase Binding Assays (ThermoFisher/USA) to evaluate inhibitors were performed by addition of 5 μl of test compound in corresponding DMSO dilutions/5 μl of kinase/antibody mixture, 5 μl of tracer into 384 well small volume plates. After incubation for 1 hour at room temperature, plates were read. Data analysis of emission ratios was according to LanthaScreen Eu Kinase Binding Assay protocol.
Kinase and assay components were adjusted to final concentrations according to the kit protocol. For LRRK2: 5 nM wt human LRRK2, catalytic site, or G2019S human LRRK2, catalytic site (ThermoFisher/USA), 2 nM Eu-Anti-GST Antibody, 10 nM Kinase Tracer 236 in 1× Kinase Buffer A. For NUAK1: 8 nM wt human NUAK1, full length (ThermoFisher/USA), 2 nM Eu-Anti-His Antibody, 5 nM Kinase Tracer 236 in 1× Kinase Buffer A.

As for `Fc1cccc(F)c1C1=Nc2cn[nH]c2-c2ccccc2N1` [Compound 8, 5-(2,6-difluorophenyl)-1,6-dihydrobenzo[d]pyrazolo[3,4-f][1,3]diazepine], the IC50 is 10 to 100 nM in experiment [1] and 100 to 1000 nM in experiment [2].

With `Fc1cccc(F)c1C1=Nc2ncccc2-c2[nH]ncc2N1` [Compound 11, 5-(2,6-difluorophenyl)-1,4-dihydropyrazolo[4,3-d]pyrido[3,2-f][1,3]diazepine], the IC50 in experiment [1] lay in the range of 100 to 1000 nM; in experiment [2] it was 10 to 100 nM.

`Fc1ccc(Cl)c(F)c1C1=Nc2ccccc2-c2[nH]ncc2N1` [Compound 18, 5-(3-chloro-2,6-difluorophenyl)-1,4-dihydrobenzo[d]pyrazolo[3,4-f][1,3]diazepine]: the IC50 in experiment [1] and in experiment [2] was 100 to 1000 nM in each case.

Regarding `Fc1cccc(F)c1C1=Nc2ccc(Cl)cc2-c2[nH]ncc2N1` [Compound 25, 9-chloro-5-(2,6-difluorophenyl)-1,4-dihydrobenzo[d]pyrazolo[3,4-f][1,3]diazepine], the IC50 in experiment [1] fell in the range of 100 to 1000 nM; in experiment [2], 10 to 100 nM.

`Fc1cccc(Cl)c1C1=Nc2ccccc2-c2[nH]ncc2N1` [Compound 27, 5-(2-chloro-6-fluorophenyl)-1,4-dihydrobenzo[d]pyrazolo[3,4-f][1,3]diazepine]: the IC50 in experiment [1] and in experiment [2] was 10 to 100 nM in each case.

On to `Fc1cccc(Cl)c1C1=Nc2ncccc2-c2[nH]ncc2N1` [Compound 30, 5-(2-chloro-6-fluorophenyl)-1,4-dihydropyrazolo[4,3-d]pyrido[3,2-f][1,3]diazepine], for which, in experiment [1], the IC50 is 10 to 100 nM.

In the case of `Fc1ccc(F)c(C2=Nc3ccccc3-c3[nH]ncc3N2)c1F` [Compound 32, 5-(2,3,6-trifluorophenyl)-1,4-dihydrobenzo[d]pyrazolo[3,4-f][1,3]diazepine], the IC50 in experiment [1] and in experiment [2] was 100 to 1000 nM in each case.

On to `Fc1ccc2c(c1)-c1[nH]ncc1N=C(c1c(F)cccc1F)N2` [Compound 33, 5-(2,6-difluorophenyl)-9-fluoro-1,6-dihydrobenzo[d]pyrazolo[3,4-f][1,3]diazepine], for which the IC50 in experiment [1] and in experiment [2] was 10 to 100 nM each time.

Take `Fc1ccc2c(c1)-c1[nH]ncc1N=C(c1c(F)cccc1Cl)N2` [Compound 34, 5-(2-chloro-6-fluorophenyl)-9-fluoro-1,6-dihydrobenzo[d]pyrazolo[3,4-f][1,3]diazepine]: the IC50 in experiment [1] and in experiment [2] was 10 to 100 nM each time.

Turning to `Cc1ccc2c(c1)-c1[nH]ncc1N=C(c1c(F)cccc1Cl)N2` [Compound 35, 5-(2-chloro-6-fluorophenyl)-9-methyl-1,6-dihydrobenzo[d]pyrazolo[3,4-f][1,3]diazepine], the figures for the IC50 in experiment [1] and in experiment [2] were 100 to 1000 nM and 10 to 100 nM, respectively.

Turning to `Cc1ccc2c(c1)-c1[nH]ncc1N=C(c1c(F)cccc1F)N2` [Compound 36, 5-(2,6-difluorophenyl)-9-methyl-1,6-dihydrobenzo[d]pyrazolo[3,4-f][1,3]diazepine], the IC50 in experiment [1] was in the range of 100 to 1000 nM; in experiment [2], 10 to 100 nM.

`O=C(c1ccc2c(c1)N=C(c1c(F)cccc1F)Nc1cn[nH]c1-2)N1CCOCC1` [Compound 56, (5-(2,6-difluorophenyl)-1,4-dihydrobenzo[d]pyrazolo[3,4-f][1,3]diazepin-8-yl)(morpholino)methanone]: the IC50 in experiment [1] lay within 100 to 1000 nM.

As to `Fc1cccc(F)c1C1=Nc2cn[nH]c2-c2cn(C3CCOCC3)nc2N1` [Compound 60, 5-(2,6-difluorophenyl)-8-(tetrahydro-2H-pyran-4-yl)-6,8-dihydro-1H-dipyrazolo[3,4-d:3′,4′-f][1,3]diazepine], the IC50 in experiment [1] was 100 to 1000 nM.

Regarding `Fc1cccc(F)c1C1=Nc2cn[nH]c2-c2[nH]ncc2N1` [Compound 66, 5-(2,6-difluorophenyl)-4,9-dihydro-1H-dipyrazolo[4,3-d:3′,4′-f][1,3]diazepine], the IC50 in experiment [1] lay in the range of 10 to 100 nM.

On to `O=C(c1ccc2c(c1)N=C(c1c(Cl)cccc1Cl)Nc1cn[nH]c1-2)N1CCOCC1` [Compound 79, (5-(2,6-dichlorophenyl)-1,4-dihydrobenzo[d]pyrazolo[3,4-f][1,3]diazepin-8-yl)(morpholino)methanone], for which the IC50 in experiment [1] fell in the range of 100 to 1000 nM.

Regarding `NC(=O)c1ccc2c(c1)N=C(c1c(F)cccc1F)Nc1cn[nH]c1-2` [Compound 81, 5-(2,6-difluorophenyl)-1,4-dihydrobenzo[d]pyrazolo[3,4-f][1,3]diazepine-8-carboxamide], in experiment [1], the IC50 was under 10 nM.

On to `O=[N+]([O-])c1cccc(F)c1C1=Nc2cn[nH]c2-c2ccccc2N1` [Compound 106, 5-(2-fluoro-6-nitrophenyl)-1,6-dihydrobenzo[d]pyrazolo[3,4-f][1,3]diazepine], for which, in experiment [1], the IC50 was in the range of 100 to 1000 nM.

Turning to `O=[N+]([O-])c1ccc(F)c(C2=Nc3cn[nH]c3-c3ccccc3N2)c1F` [Compound 107, 5-(2,6-difluoro-3-nitrophenyl)-1,6-dihydrobenzo[d]pyrazolo[3,4-f][1,3]diazepine], the IC50 in experiment [1] is 100 to 1000 nM.

Turning to `O=[N+]([O-])c1cccc(F)c1C1=Nc2cn[nH]c2-c2cccnc2N1` [Compound 108, 5-(2-fluoro-6-nitrophenyl)-1,6-dihydropyrazolo[4,3-d]pyrido[3,2-f][1,3]diazepine], in experiment [1], the IC50 fell in the range of 100 to 1000 nM.

For the molecule `Fc1cccc(I)c1C1=Nc2ccccc2-c2[nH]ncc2N1` [Compound 111, 5-(2-fluoro-6-iodophenyl)-1,4-dihydrobenzo[d]pyrazolo[3,4-f][1,3]diazepine], the IC50 in experiment [1] fell in the range of 100 to 1000 nM.

With `COc1cccc(F)c1C1=Nc2cn[nH]c2-c2cccnc2N1` [Compound 119], in experiment [1], the IC50 is 100 to 1000 nM.

For the molecule `Fc1ccc2c(c1F)N=C(c1c(F)cccc1F)Nc1cn[nH]c1-2` [Compound 170, 5-(2,6-difluorophenyl)-7,8-difluoro-1,4-dihydrobenzo[d]pyrazolo[3,4-f][1,3]diazepine], the IC50 in experiment [1] was in the range of 100 to 1000 nM.

On to `O=C(NC1CCOCC1)c1cc2c(cc1Cl)-c1n[nH]cc1N=C(c1c(F)cccc1F)N2` [Compound 199, 9-chloro-5-(2,6-difluorophenyl)-N-(tetrahydro-2H-pyran-4-yl)-2,6-dihydrobenzo[d]pyrazolo[3,4-f][1,3]diazepine-8-carboxamide], for which, in experiment [1], the IC50 was in the range of 100 to 1000 nM.

For `Fc1cc2c(cc1OC1CCOCC1)N=C(c1c(Cl)cccc1C(F)(F)F)Nc1c[nH]nc1-2` [Compound 224, 5-(2-chloro-6-(trifluoromethyl)phenyl)-9-fluoro-8-((tetrahydro-2H-pyran-4-yl)oxy)-2,4-dihydrobenzo[d]pyrazolo[3,4-f][1,3]diazepine], the IC50 in experiment [1] lay within 10 to 100 nM.

As to `CCC(CC)Oc1cc2c(cc1F)-c1n[nH]cc1N=C(c1c(F)cccc1Cl)N2` [Compound 232, 5-(2-chloro-6-fluorophenyl)-9-fluoro-8-(pentan-3-yloxy)-2,6-dihydrobenzo[d]pyrazolo[3,4-f][1,3]diazepine], in experiment [1], the IC50 is 10 to 100 nM.

`Fc1cc2c(cc1Oc1ccccc1)N=C(c1c(F)cccc1Cl)Nc1c[nH]nc1-2` [Compound 244, 5-(2-chloro-6-fluorophenyl)-9-fluoro-8-phenoxy-2,4-dihydrobenzo[d]pyrazolo[3,4-f][1,3]diazepine]: in experiment [1], the IC50 lay within 100 to 1000 nM.

On to `CC[C@@H](C)Oc1cc2c(cc1F)-c1n[nH]cc1N=C(c1c(F)cccc1Cl)N2` [Compound 248, (R)-8-(sec-butoxy)-5-(2-chloro-6-fluorophenyl)-9-fluoro-2,6-dihydrobenzo[d]pyrazolo[3,4-f][1,3]diazepine], for which the IC50 in experiment [1] was in the range of 10 to 100 nM.
